The numbers were not newly measured in patent US8697141B2, “Method and composition for preventing and healing osteonecrosis of the jaw” (Micropure, Inc., priority 2008, dated 2014), which cites them from elsewhere.

Like-named read-outs stand apart in the source and are kept apart here.

The subject of series [1] is ONJ. The settings on record: oral users, 208 patients.
The test system of series [2] is osteoblasts. Conditions: dose and time dependent.
The subject of the next series is fibroblasts. The settings on record: dose and time dependent.
For another series, the system named is endothelial cells. The settings on record: dose and time dependent.
Series [3] relates to ONJ. Conditions: 0.12% chlorhexidine; out of 24 patients.
Series [4] deals with human gingival fibroblasts. Conditions: chlorhexidine at 0.12%.
The subject of series [5] is periodontal ligament cells. Conditions: chlorhexidine at 0.12%.
For series [6], the system named is osteoblasts. The settings on record: chlorhexidine at 0.12%.
Series [7] has as its system human osteoblast-like cells. Conditions: high concentrations over a prolonged time interval.
For a further series, the system named is C. albicans. The settings on record: time and dose dependent.
Series [8] has as its system human gingival fibroblasts. The settings on record: 0.05 mM.
In the next series the test system is bone vascularity. The settings on record: rats.
The test system of series [9] is capillary neoangiogenesis.
The subject of series [10] is human gingival fibroblasts. Conditions: low concentrations.
The next series concerns keratinocytes. Conditions: low concentrations.
The subject of the next series is S. mutans. The settings on record: 200 ppm, within 10 seconds of application.
The next series relates to Bacteroides gingivalis. Conditions: 200 ppm, at several time points and different pH.
Another series concerns DUWL biofilms. The settings on record: after 5 days of treatment.
The next series deals with bacteria. Conditions: exposures as short as 10 seconds.
The conditions of series [11]: in vivo.

`NCCCC(O)(P(=O)(O)O)P(=O)(O)O` [alendronate]: the ONJ prevalence rate in the series on ONJ [1] is listed as 4%.
As to `N=C(NCCCCCCNC(=N)NC(=N)Nc1ccc(Cl)cc1)NC(=N)Nc1ccc(Cl)cc1.O=C(O)[C@H](O)[C@@H](O)[C@H](O)[C@H](O)CO.O=C(O)[C@H](O)[C@@H](O)[C@H](O)[C@H](O)CO` [chlorhexidine digluconate], the apoptosis and necrosis entry in the series on osteoblasts [2] was “induced apoptosis and led to necrosis”; in the series on fibroblasts, “induced apoptosis and led to necrosis”; in the series on endothelial cells it was “induced apoptosis and led to necrosis”.
In the case of `[H]/N=C(\N/C(=N/[H])NCCCCCCNC(=N)NC(=N)Nc1ccc(Cl)cc1)Nc1ccc(Cl)cc1` [chlorhexidine], in the series on ONJ [3], the “patients with ONJ progression” value is given as 13 patients, the “patients with ONJ resolution” value was 3 patients and the “patients with no change in ONJ status” value is 8 patients. In addition, in [4], the “LDH release compared with controls” value is “elevated and significant LDH release”. In addition, in [5], the “LDH release compared with controls” value is “elevated and significant LDH release”. Besides, the “LDH release compared with controls” value with osteoblasts [6] was “elevated and significant LDH release”. The cell survival result in series [7] is reported as “adverse effect on the survival”.
For the compound `[O][Cl+][O-]` [chlorine dioxide], the potassium leakage result in the series with C. albicans is listed as “marked increase”. Further, in series [8] (0.1 mM and 0.5 mM ClO2), the induction of apoptosis entry is reported as “not to induce apoptosis significantly”.
`OO` [hydrogen peroxide]: the induction of apoptosis result in series [8] (1.0 mM) is on record as “induced apoptosis at all concentrations tested”.
Turning to `NCCC(O)(P(=O)(O)O)P(=O)(O)O` [pamidronate], the bone vascularity entry in the series on bone vascularity was “reduce bone vascularity”. In addition, the “new formation of capillaries from blood vessels” value in series [9] is listed as “inhibit the new formation of capillaries from blood vessels”.
For `O=P(O)(O)C(O)(Cn1ccnc1)P(=O)(O)O` [zoledronic acid], the “apoptosis of oral mucosal cells” value (in series [10]; in the series on keratinocytes) was “gene-regulated induced apoptosis” throughout.
As for stabilized chlorine dioxide, the “in vitro kill rate” value in the series on S. mutans is given as 99%. Also, in the series on Bacteroides gingivalis, the in vitro kill is listed as 100%. In addition, the “LDH release compared with controls” value (in [4]; in series [5]; in the series with osteoblasts [6]) was “did not increase the release of LDH” each time. In addition, the “heterotrophic plate count (HPC) value” with DUWL biofilms is reported as 0. For the same compound, in the series with bacteria, the reduction in bacteria entry is recorded as “dramatic reduction in bacteria”. Moreover, the “VSCs in expired mouth air” value in [11] is reported as “remarkable decrease in VSCs”.
